IC50 data for 18 compounds are collected here from US20150148377A1, “Quinoline Derivatives” (NOVARTIS AG, priority 2011, published 2015).

One assay deals with T1, PI3K alpha (Homo sapiens, UniProt P42336).
T1 construct: His tag (C); made in house; host or cells: baculovirus; Tn5 (Trichoplusia ni) or TiniPro insect cells
Kind of assay: Enzymatic PI3K alpha isoform inhibition (lipid kinase activity, Kinase-Glo). The format is biochemical. The note with it: enzymatic assay. As to the method:
The kinase reaction is performed in a final volume of 50 μl per well of a half area COSTAR, 96 well plate. The final concentrations of ATP and phosphatidyl inositol in the assay are 5 μM and 6 μg/mL, respectively. The reaction is started by the addition of PI3 kinase, e.g. PI3 kinase δ.
(§1) In a more preferred assay, the kinase reaction is performed in a final volume of 10 μl per well of a low volume non-binding CORNING, 384 well black plate (Cat. No. #3676). The final concentrations of ATP and phosphatidyl inositol (PI) in the assay are 1 μM and 10 μg/mL, respectively. The reaction is started by the addition of ATP.
(§2) The components of the assay are added per well as follows:
(§3) 50 nl test compounds in 90% DMSO per well, in columns 1-20, 8 concentrations (1/3 and 1/3.33 serial dilution step) in single. • Low control: 50 nl of 90% DMSO in half the wells of columns 23-24 (0.45% in final). • High control: 50 nl of reference compound (e.g. compound of Example 7 in WO 2006/122806) in the other half of columns 23-24 (2.5 μM in final). • Standard: 50 nl of reference compound as just mentioned diluted as the test compounds in columns 21-22. • 20 mL ‘buffer’ are prepared per assay: • 200 μl of 1M TRIS HCl pH7.5 (10 mM in final) • 60 μl of 1M MgCl2 (3 mM in final) • 500 μl of 2M NaCl (50 mM in final) • 100 μl of 10% CHAPS (0.05% in final) • 200 μl of 100 mM DTT (1 mM in final) • 18.94 mL of nanopure water • 10 mL ‘PI’ are prepared per assay: • 200 μl of 1 mg/mL 1-alpha-Phosphatidylinositol (Liver Bovine, Avanti Polar Lipids Cat. No. 840042C MW=909.12) prepared in 3% OctylGlucoside (10 μg/mL in final) • 9.8 mL of ‘buffer’ • 10 mL ‘ATP’ are prepared per assay: • 6.7 μl of 3 mM stock of ATP giving a final concentration of 1 μM per well • 10 mL of ‘buffer’ • 2.5 mL of each PI3K construct are prepared per assay in ‘PI’ with the following final concentration: • 10 nM PI3K alfa EMV B1075 • 25 nM beta EMV BV949 • 10 nM delta EMV BV1060 • 150 nM gamma EMV BV950 • 5 μl of ‘PI/PI3K’ are added per well. • 5 μl ‘ATP’ are added per well to start the reaction. • The plates are then incubated at room temperature for 60 minutes (alfa, beta, delta) or 120 minutes (gamma). • The reaction is terminated by the addition of 10 μl Kinase-Glo (Promega Cat. No. #6714). • The assay plates are read after 10 minutes in Synergy 2 reader (BioTek, Vermont USA) with an integration time of 100 milliseconds and sensitivity set to 191. • Output: The High control is around 60'000 counts and the Low control is 30'000 or lower • This luminescence assay gives a useful Z′ ratio between 0.4 and 0.7
(§4) IC50 is determined by a four parameter curve fitting routine that comes along with “excel fit”. A four parameter logistic equation is used to calculate IC50 values (IDBS XLfit) of the percentage inhibition of each compound at 8 concentrations (usually 10, 3.0, 1.0, 0.3, 0.1, 0.030, 0.010 and 0.003 μM). Alternatively, IC50 values are calculated using idbsXLfit model 204, which is a 4 parameter logistic model.
(§5) Yet alternatively, for an ATP depletion assay, compounds of the formula I to be tested are dissolved in DMSO and directly distributed into a white 384-well plate at 0.5 μl per well. To start the reaction, 10 μl of 10 nM PI3 kinase and 5 μg/mL 1-alpha-phosphatidylinositol (PI) are added into each well followed by 10 μl of 2 μM ATP. The reaction is performed until approx 50% of the ATP is depleted, and then stopped by the addition of 20 μl of Kinase-Glo solution (Promega Corp., Madison, Wis., USA). The stopped reaction is incubated for 5 minutes and the remaining ATP is then detected via luminescence. IC50 values are then determined.
A general note: In Kinase-Glo more light means more ATP remaining.

In another assay the target is T2, PI3K delta (Homo sapiens, UniProt O00329).
T2 construct: for the full-length p110-d subunit are generated and fused by overlapping PCR; His tag (C); made in house; host or cells: baculovirus; Tn5 (Trichoplusia ni) or TiniPro insect cells
T2 sequence (O00329 with tags, fused parts or gaps limits assumed): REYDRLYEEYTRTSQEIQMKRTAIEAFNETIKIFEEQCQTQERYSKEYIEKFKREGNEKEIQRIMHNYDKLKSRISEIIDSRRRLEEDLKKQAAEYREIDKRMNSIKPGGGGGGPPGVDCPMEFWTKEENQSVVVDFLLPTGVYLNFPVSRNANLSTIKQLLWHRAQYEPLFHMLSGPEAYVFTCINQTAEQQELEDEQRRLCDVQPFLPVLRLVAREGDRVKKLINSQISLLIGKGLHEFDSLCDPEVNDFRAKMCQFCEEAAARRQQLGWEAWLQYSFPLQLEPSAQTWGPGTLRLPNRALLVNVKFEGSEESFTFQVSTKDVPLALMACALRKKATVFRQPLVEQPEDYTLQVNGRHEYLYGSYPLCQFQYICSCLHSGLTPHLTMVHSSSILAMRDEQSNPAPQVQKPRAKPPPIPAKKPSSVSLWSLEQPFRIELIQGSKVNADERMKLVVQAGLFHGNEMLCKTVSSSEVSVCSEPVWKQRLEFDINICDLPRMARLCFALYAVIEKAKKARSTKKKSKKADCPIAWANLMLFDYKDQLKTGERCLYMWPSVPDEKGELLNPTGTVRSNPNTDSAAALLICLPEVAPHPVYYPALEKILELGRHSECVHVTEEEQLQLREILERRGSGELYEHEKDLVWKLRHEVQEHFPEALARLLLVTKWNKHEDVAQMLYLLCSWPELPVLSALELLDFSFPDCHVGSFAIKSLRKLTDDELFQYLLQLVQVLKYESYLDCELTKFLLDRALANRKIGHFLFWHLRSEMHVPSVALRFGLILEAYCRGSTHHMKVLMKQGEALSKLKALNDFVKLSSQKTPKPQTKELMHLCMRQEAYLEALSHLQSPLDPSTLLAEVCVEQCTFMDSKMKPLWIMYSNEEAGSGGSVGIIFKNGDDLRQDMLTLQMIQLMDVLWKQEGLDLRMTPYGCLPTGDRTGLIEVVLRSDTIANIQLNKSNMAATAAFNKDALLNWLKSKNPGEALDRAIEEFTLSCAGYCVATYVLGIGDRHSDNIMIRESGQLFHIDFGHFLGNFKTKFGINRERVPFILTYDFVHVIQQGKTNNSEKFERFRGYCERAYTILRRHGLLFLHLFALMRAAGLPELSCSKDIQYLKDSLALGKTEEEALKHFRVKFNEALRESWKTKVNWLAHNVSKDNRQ
Nature of the assay: Enzymatic PI3K delta isoform inhibition (lipid kinase activity, Kinase-Glo). The assay is classed as biochemical. The note with it: enzymatic assay. The procedure:
as §1, §2, §3, §4, §5

T1 sequence (P42336 with tags, fused parts or gaps limits assumed): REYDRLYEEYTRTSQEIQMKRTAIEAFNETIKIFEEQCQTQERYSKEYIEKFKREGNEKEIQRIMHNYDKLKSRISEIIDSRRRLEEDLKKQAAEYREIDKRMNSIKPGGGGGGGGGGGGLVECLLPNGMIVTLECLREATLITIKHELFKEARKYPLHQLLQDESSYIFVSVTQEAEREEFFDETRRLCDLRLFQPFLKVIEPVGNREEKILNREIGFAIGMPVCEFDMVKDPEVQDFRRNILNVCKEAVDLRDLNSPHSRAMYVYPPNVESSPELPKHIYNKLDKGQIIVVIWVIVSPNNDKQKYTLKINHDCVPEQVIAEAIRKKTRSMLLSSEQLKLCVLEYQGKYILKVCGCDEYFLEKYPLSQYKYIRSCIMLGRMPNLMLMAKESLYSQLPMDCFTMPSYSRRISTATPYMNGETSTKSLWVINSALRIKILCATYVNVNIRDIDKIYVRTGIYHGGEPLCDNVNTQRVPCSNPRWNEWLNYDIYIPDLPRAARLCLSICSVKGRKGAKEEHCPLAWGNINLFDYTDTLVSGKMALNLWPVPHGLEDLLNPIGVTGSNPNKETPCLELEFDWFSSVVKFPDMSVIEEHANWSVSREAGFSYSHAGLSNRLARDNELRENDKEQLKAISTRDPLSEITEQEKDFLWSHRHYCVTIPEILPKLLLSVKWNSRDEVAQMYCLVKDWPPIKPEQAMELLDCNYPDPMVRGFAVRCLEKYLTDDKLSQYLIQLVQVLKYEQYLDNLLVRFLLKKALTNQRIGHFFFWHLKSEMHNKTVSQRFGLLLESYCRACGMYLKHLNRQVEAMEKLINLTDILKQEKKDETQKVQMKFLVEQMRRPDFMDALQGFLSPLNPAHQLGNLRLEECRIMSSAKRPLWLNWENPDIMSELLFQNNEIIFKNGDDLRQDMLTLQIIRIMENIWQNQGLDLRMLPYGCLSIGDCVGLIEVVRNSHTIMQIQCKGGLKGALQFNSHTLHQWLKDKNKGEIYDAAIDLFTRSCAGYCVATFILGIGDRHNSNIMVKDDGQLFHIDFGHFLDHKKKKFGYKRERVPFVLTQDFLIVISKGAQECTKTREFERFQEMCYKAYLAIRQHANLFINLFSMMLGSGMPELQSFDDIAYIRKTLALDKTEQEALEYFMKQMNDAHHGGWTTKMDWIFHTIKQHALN

Regarding `CCC(=O)N1CC[C@H](Oc2ccc3nccc(-c4cnc(OC)c(C)c4)c3c2)C1` [Example A2, 1-{(S)-3-[4-(6-Methoxy-5-methyl-pyridin-3-yl)-quinolin-6-yloxy]-pyrrolidin-1-yl}-propan-1-one], the IC50 (usually the midpoint of a concentration-inhibition curve) on PI3K alpha is 264 nM; on PI3K delta it was less than 3 nM.

As for `COc1ncc(-c2ccnc3ccc(O[C@H]4CCN(C(=O)C5CCOCC5)C4)cc23)cc1C#N` [Example A3, 2-Methoxy-5-{6-[(S)-1-(tetrahydro-pyran-4-carbonyl)-pyrrolidin-3-yloxy]-quinolin-4-yl}-nicotinonitrile], the IC50 at PI3K alpha is 426 nM; at PI3K delta, 3 nM.

In the case of `COc1ncc(-c2ccnc3ccc(O[C@H]4CCN(C(=O)C5CCS(=O)(=O)CC5)C4)cc23)cc1F` [Example A4, (1,1-Dioxo-hexahydro-1lambda*6*-thiopyran-4-yl)-{(S)-3-[4-(5-fluoro-6-methoxy-pyridin-3-yl)-quinolin-6-yloxy]-pyrrolidin-1-yl}-methanone], the figures for the IC50 at PI3K alpha and at PI3K delta were 128 nM and 3 nM, respectively.

As for `COc1ncc(-c2ccnc3ccc(O[C@H]4CCN(C(=O)c5ccc(=O)[nH]c5)C4)cc23)cc1C` [Example A5, 5-{(S)-3-[4-(6-Methoxy-5-methyl-pyridin-3-yl)-quinolin-6-yloxy]-pyrrolidine-1-carbonyl}-1H-pyridin-2-one], the figures for the IC50 on PI3K alpha and on PI3K delta were 231 nM and less than 3 nM, respectively.

As for `COc1ncc(-c2ccnc3ccc(O[C@H]4CCN(C(=O)C5CCOCC5)C4)cc23)cc1C(F)(F)F` [Example A7, {(S)-3-[4-(6-Methoxy-5-trifluoromethyl-pyridin-3-yl)-quinolin-6-yloxy]-pyrrolidin-1-yl}-(tetrahydro-pyran-4-yl)-methanone], the 50% inhibitory concentration (IC50) at PI3K alpha amounted to 96 nM; on PI3K delta, 4 nM.

On to `COc1ncc(-c2ccnc3ccc(O[C@H]4CCN(C(=O)C5CCS(=O)(=O)CC5)C4)cc23)cc1C(F)(F)F` [Example A8, (1,1-Dioxo-hexahydro-1lambda*6*-thiopyran-4-yl)-{(S)-3-[4-(6-methoxy-5-trifluoromethyl-pyridin-3-yl)-quinolin-6-yloxy]-pyrrolidin-1-yl}-methanone], for which the IC50 on PI3K alpha came out at 131 nM; at PI3K delta it was 4 nM.

Take `COc1ncc(-c2ccnc3ccc(O[C@H]4CCN(C(=O)C5CCS(=O)(=O)CC5)C4)cc23)cc1CF` [Example A9, (1,1-Dioxo-hexahydro-1lambda*6*-thiopyran-4-yl)-{(S)-3-[4-(5-fluoromethyl-6-methoxy-pyridin-3-yl)-quinolin-6-yloxy]-pyrrolidin-1-yl}-methanone]: the IC50 amounted to 172 nM on PI3K alpha and 4 nM on PI3K delta.

With `COc1ncc(-c2ccnc3ccc(O[C@H]4CCN(C(=O)[C@@H]5CCN(C(C)=O)C5)C4)cc23)cc1C(F)(F)F` [Example A11, 1-((R)-3-{(S)-3-[4-(6-Methoxy-5-trifluoromethyl-pyridin-3-yl)-quinolin-6-yloxy]-pyrrolidine-1-carbonyl}-pyrrolidin-1-yl)-ethanone], the values for the IC50 on PI3K alpha and on PI3K delta were 257 nM and 5 nM, respectively.

On to `COc1ncc(-c2ccnc3ccc(O[C@H]4CCN(C(=O)C5CCOC5)C4)cc23)cc1C#N` (stereo partly drawn) [Example A12, 2-Methoxy-5-{6-[(S)-1-((R,S)-tetrahydro-furan-3-carbonyl)-pyrrolidin-3-yloxy]-quinolin-4-yl}-nicotinonitrile], for which the IC50 was determined as 305 nM at PI3K alpha and 5 nM at PI3K delta.

As for `COc1ncc(-c2ccnc3ccc(O[C@H]4CCN(C(=O)C5CCOCC5)C4)cc23)cc1F` [Example A13, {(S)-3-[4-(5-Fluoro-6-methoxy-pyridin-3-yl)-quinolin-6-yloxy]-pyrrolidin-1-yl}-(tetrahydro-pyran-4-yl) methanone], the IC50 stood at 802 nM on PI3K alpha and 5 nM on PI3K delta.

For the compound `COc1ncc(-c2ccnc3ccc(O[C@H]4CCN(C(=O)C5CCOCC5)C4)cc23)cc1C` [Example A14, {(S)-3-[4-(6-Methoxy-5-methyl-pyridin-3-yl)-quinolin-6-yloxy]-pyrrolidin-1-yl}-(tetrahydro-pyran-4-yl)methanone], the results for the half-maximal inhibitory concentration (IC50) on PI3K alpha and at PI3K delta were 253 nM and 6 nM, respectively.

As to `COc1ncc(-c2ccnc3ccc(O[C@H]4CCN(C(=O)C5CCN(C(C)=O)CC5)C4)cc23)cc1C(F)(F)F` [Example A16, 1-(4-{(S)-3-[4-(6-Methoxy-5-trifluoromethyl-pyridin-3-yl)-quinolin-6-yloxy]-pyrrolidine-1-carbonyl}-piperidin-1-yl) ethanone], the half-inhibitory concentration (IC50) amounted to 207 nM at PI3K alpha and 7 nM at PI3K delta.

In the case of `CS(=O)(=O)c1ncc(-c2ccnc3ccc(O[C@H]4CCN(C(=O)C5CCOCC5)C4)cc23)cc1C(F)F` [Example A17, {(S)-3-[4-(5-Difluoromethyl-6-methanesulfonyl-pyridin-3-yl)-quinolin-6-yloxy]-pyrrolidin-1-yl}-(tetrahydro-pyran-4-yl)-methanone], the results for the IC50 at PI3K alpha and on PI3K delta were 341 nM and 7 nM, respectively.

In the case of `CCC(=O)N1CC[C@H](Oc2ccc3nccc(-c4cnc(OC)c(C#N)c4)c3c2)C1` [Example A18, 2-Methoxy-5-[6-((S)-1-propionyl-pyrrolidin-3-yloxy)-quinolin-4-yl]-nicotinonitrile], the IC50 stood at 613 nM at PI3K alpha and 7 nM on PI3K delta.

`COc1ncc(-c2ccnc3ccc(O[C@H]4CCN(C(=O)c5ccc(=O)[nH]c5)C4)cc23)cc1C(F)(F)F` [Example A19, 5-{(S)-3-[4-(6-Methoxy-5-trifluoromethyl-pyridin-3-yl)-quinolin-6-yloxy]-pyrrolidine-1-carbonyl}-1H-pyridin-2-one]: the IC50 stood at 85 nM at PI3K alpha and 7 nM on PI3K delta.

For `CS(=O)(=O)c1ncc(-c2ccnc3ccc(O[C@H]4CCN(C(=O)C5CCOCC5)C4)cc23)cc1CF` [Example A20, {(S)-3-[4-(5-Fluoromethyl-6-methanesulfonyl-pyridin-3-yl)-quinolin-6-yloxy]-pyrrolidin-1-yl}-(tetrahydropyran-4-yl)-methanone], the values for the 50% inhibitory concentration (IC50) at PI3K alpha and on PI3K delta were 543 nM and 7 nM, respectively.

`CC(=O)N1CC[C@@H](C(=O)N2CC[C@H](Oc3ccc4nccc(-c5cnc(S(C)(=O)=O)c(C)c5)c4c3)C2)C1` [Example A21, 1-((R)-3-{(S)-3-[4-(6-Methanesulfonyl-5-methyl-pyridin-3-yl)-quinolin-6-yloxy]-pyrrolidine-1-carbonyl}-pyrrolidin-1-yl)-ethanone]: the IC50 at PI3K alpha was determined as 822 nM; on PI3K delta, 7 nM.

`COc1ncc(-c2ccnc3ccc(O[C@H]4CCN(C(=O)C5CCS(=O)(=O)CC5)C4)cc23)cc1C#N` [Example A22, 5-{6-[(S)-1-(1,1-Dioxo-hexahydro-1lambda*6*-thiopyran-4-carbonyl)-pyrrolidin-3-yloxy]-quinolin-4-yl}-2-methoxy-nicotinonitrile]: the IC50 on PI3K alpha was 364 nM; at PI3K delta, 8 nM.
